Experimental data as given in patent publication US9233912B2, “Devices and methods for crystallization” (Massachusetts Institute of Technology, priority 2013, dated 2016).
Like-named read-outs stand apart in the source and are kept apart here.

Experiments:
[1] = Integrated nucleator-crystallizer (Coflore crystallizer) experiment, crystal size; conditions: for d0.1 / d0.5 / d0.9: Integrated nucleator crystallization
[2] = Seeded Crystallization
Experimental: (§1) To perform the analysis, a drop of solution or 1 mg of crystals dispersed in a few drops of mineral oil was first imaged using a 5× objective.
A continuous crystallization process with seeding was evaluated for comparison with an integrated nucleator-crystallizer device. A schematic diagram of the seeded crystallization experiment is depicted in FIG. 13. Seed crystals (nuclei) were obtained from antisolvent crystallization of glycine (to generate small crystals). Crystals obtained from antisolvent crystallization were sieved through a series of sieves with openings of 90, 63, and 45 μm. Seeds were collected from the 45 μm sieve.
For the seeded crystallization experiment, the crystallizer was first filled with the feed solution. Once filled, the process was seeded by pumping (50 mL/min) a suspension of 0.05 g seed in 25 mL feed solution into the crystallizer. After seeding, the crystallization process proceeded with continuous input of clear feed solution at 50 mL/min. Glycine crystals were collected by vacuum filtration at the crystallizer outlet. Except for the seeding procedure, the other experimental conditions for the seeded crystallization experiment were kept identical to the integrated nucleator-crystallizer experiment of Example 4.
Feed solution concentration: 24% (20% above saturation)
Residence time in crystallizer (100 mL): 2 min
Crystallizer holding temperature: 28° C.
The data were analyzed with crystals collected between 4-5 residence times (RT) when the device was at steady state.
To investigate the feasibility of the seeded experiment, a second experiment was conducted at lower crystallizer temperature (higher supersaturation that could potentially improve crystal growth rate).

[3] = w/w = g chemical/g solution; cited from earlier work
[4] = Experimental: as §1
[5] = Integrated nucleator-tubular crystallizer experiment, crystal size by microscopic analysis; type: physicochemical
Experimental: as §1
These experiments involved connecting the generator to a tubular crystallizer for crystal growth. This integrated nucleator-crystallizer experiment was conducted with a 49 mL tubular coiled crystallizer (Masterflex® L/S®, Chem-Durance® Bio tubing, ID=3.2 mm, Length=20 ft) using 1.54% acetaminophen solution. During the experiment, relatively small crystals generated in the nucleator were pumped into the tubular crystallizer at the same flow rate as the nuclei generator. The small crystals then grew in the crystallizer for a fixed residence time before the crystals were collected by vacuum filtration, as shown in FIG. 2. Two experiments at flow rates of 14.2 and 11.3 mL/min were conducted. The particle size distributions of the crystals were determined by microscopic analysis (Nikon Eclipse ME600).
The nuclei generator can be integrated into crystallization processes in which the production of crystals of specific size distribution is desired (See, e.g., FIGS. 1B, 1C, 2, 12). In some embodiments, with the continuous generation of nuclei, the nucleation and growth events were decoupled. In this case, nucleation was triggered in the nucleator, while growth continued in the crystallizer. Multiple integrated nucleator—tubular crystallizer experiments were conducted that illustrate this process.

[6] = Nucleator only experiments, in-line FBRM chord length distribution; type: physicochemical; conditions: FBRM at nucleator outlet, residence time 7.4 s and 10.3 s
Excerpt: In some embodiments, Focused Beam Reflectance Measurement (FBRM) or similar technique may be used to obtain characteristic size information. FBRM, in some embodiments, provides an ability to measure objects (e.g., crystals) in suspensions, e.g., at full process concentration, without the need for sample extraction and sample preparation. In some embodiments, FBRM method of measurement may be used which is based on a measurement of Chord Length Distribution that simultaneously tracks the rate and degree of change in particle count and mean chord length. As used herein, the term “chord length” refers to the length of a line segment passing across a portion of a projection of an object on a two-dimensional plane, and whose end points lie on the edge of the projection. The term “mean chord length” refers to the mean length of multiple chords, e.g., multiple randomly orientated chords. Methods for measuring mean particle count and mean chord length are well known in the art. See, […]. Particle Size Measurements: Fundamentals, Practice, Quality. […] Copyright 2009 Springer Science+Business Media B.V., and references cited therein.

Question: With `NCC(=O)O` [Glycine, glycine] as the compound, how does the “average size of nuclei upon leaving the nucleator” value ([1]; 24% solution, 50 mL/min, approx. 10 s in nucleator) read?
Answer: 14 μm

Question: What about the “average size of crystals from Coflore crystallizer” value ([1]; 24% solution, 50 mL/min, approx. 2 minutes in crystallizer, 28° C.) of the same compound?
Answer: 48 μm

Question: And the d0.1 ([1]; Coflore)?
Answer: 13.9 μm

Question: What about the d0.5 ([1]; Coflore) of the same compound?
Answer: 34.1 μm

Question: And the d0.9 ([1]; Coflore)?
Answer: 91.9 μm

Question: What about the d0.1 ([1]; Nucleator) of the same compound?
Answer: 2.4 μm

Question: And the d0.5 ([1]; Nucleator)?
Answer: 8.8 μm

Question: And the d0.9 ([1]; Nucleator)?
Answer: 27.2 μm

Question: What about the d0.1 ([2]; Run 1 (Tcryst = 28° C.)) of the same compound?
Answer: 6.3 μm

Question: What about the d0.5 ([2]; Run 1 (Tcryst = 28° C.)) of the same compound?
Answer: 14.6 μm

Question: And the d0.9 ([2]; Run 1 (Tcryst = 28° C.))?
Answer: 44.6 μm

Question: What about the d0.1 ([2]; Run 2 (Tcryst = 25° C.)) of the same compound?
Answer: 7.4 μm

Question: What about the d0.5 ([2]; Run 2 (Tcryst = 25° C.)) of the same compound?
Answer: 28.8 μm

Question: And the d0.9 ([2]; Run 2 (Tcryst = 25° C.))?
Answer: 90.3 μm

Question: What about the d0.1 ([2]; Seed) of the same compound?
Answer: 2.4 μm

Question: And the d0.5 ([2]; Seed)?
Answer: 10.3 μm

Question: And the d0.9 ([2]; Seed)?
Answer: 50.8 μm

Question: What about the “Saturation concentration at 25° C. (Cs)” value [3] of the same compound?
Answer: 20^15 % w/w

Question: And the “size below which 90% of the nuclei lie” value ([4]; 21% glycine solution, 30 s residence time, nucleator only)?
Answer: less than 12.28 μm

Question: And the “coefficient of variation (CV) of nuclei size” value ([4]; 21% glycine solution, three residence times)?
Answer: ~1

Question: And the “size of nuclei obtained (mostly)” value ([4]; 21% glycine solution, three residence times (30 s, 2 min, 3.5 min))?
Answer: less than 20 μm

Question: And the “mean size of small crystals generated with the nucleator” value ([4]; glycine experiments, nucleator device)?
Answer: up to 14 μm

Question: With `CC(=O)Nc1ccc(O)cc1` [Acetaminophen, acetaminophen] as the compound, how does the “average growth rate inside the nucleator” value ([5]; flow rate 11.31 mL/min) read?
Answer: 1.47×10^−7 m/s

Question: What about the “mean size of crystals leaving the nucleator” value ([5]; flow rate 11.31 mL/min) of the same compound?
Answer: 6.7 μm

Question: And the “mean size of crystals after tubular crystallizer” value ([5]; flow rate 11.31 mL/min, after 4.3 min in the tubular crystallizer)?
Answer: 13.5 μm

Question: And the “average growth rate inside the crystallizer” value ([5]; flow rate 11.31 mL/min, tubular crystallizer)?
Answer: 2.62×10^−7 m/s

Question: What about the “mean size of small crystals produced” value ([5]; integrated nucleator and tubular crystallizer, FIG. 9) of the same compound?
Answer: 12 μm

Question: What about the “Saturation concentration at 25° C. (Cs)” value [3] of the same compound?
Answer: 1.48^16 % w/w

Question: What about the “span (D (0.9)-D (0.1)) of chord length distribution” value [6] of the same compound?
Answer: ≈ 20 μm
